Laboratory results published in patent publication US20210045385A1, “PYRIDAZINONE-SUBSTITUTED KETOXIMES AS HERBICIDES” (FMC Corporation, priority 2018, published 2021).

Assays:
Assay type in all cases: in vivo
[1] = test system: barnyardgrass (Echinochloa crus-galli); assay: Test D flooded paddy test, visual plant response rating; settings: 250 g ai/ha, scale 0 to 100 (0 no effect, 100 complete control), 13 to 15 d
Protocol: (§1) Plant species in the flooded paddy test selected from rice (Oryza sativa), sedge umbrella (small-flower umbrella sedge, Cyperus difformis) duck salad (Heteranthera limosa), and barnyardgrass (Echinochloa crus-galli) were grown to the 2-leaf stage for testing. At time of treatment, test pots were flooded to 3 cm above the soil surface, treated by application of test compounds directly to the paddy water, and then maintained at that water depth for the duration of the test. Treated plants and controls were maintained in a greenhouse for 13 to 15 d, after which time all species were compared to controls and visually evaluated. Plant response ratings, summarized in Table D, are based on a scale of 0 to 100 where 0 is no effect and 100 is complete control. A dash (-) response means no test result.

rice (Oryza sativa) = assay: as above; settings: 250 g ai/ha, scale 0 to 100 (0 no effect, 100 complete control), 13 to 15 d
Protocol: as §1

[2] = test system: sedge umbrella (small-flower umbrella sedge, Cyperus difformis); assay: as above; settings: 250 g ai/ha, scale 0 to 100 (0 no effect, 100 complete control), 13 to 15 d
Protocol: as §1

[3] = test system: duck salad (Heteranthera limosa); assay: as above; settings: 250 g ai/ha, scale 0 to 100 (0 no effect, 100 complete control), 13 to 15 d
Protocol: as §1

kochia (Bassia scoparia) [4] = assay: Test C preemergence, visual plant response rating
Text: (§2) Seeds of plant species selected from barnyardgrass (Echinochloa crus-galli), kochia (Bassia scoparia), ragweed (common ragweed, Ambrosia artemisiifolia), Italian ryegrass (Lolium mutiflorum), foxtail, giant (giant foxtail, Setaria faberi), foxtail, green (green foxtail, Setaria viridis), and pigweed (Amaranthus retroflexus) were planted into a blend of loam soil and sand and treated preemergence with a directed soil spray using test chemicals formulated in anon-phytotoxic solvent mixture which included a surfactant.
(§3) At the same time, plants selected from these weed species and also wheat (Triticum aestivum), corn (Zea mays), blackgrass (Alopecurus myosuroides), and galium (catchweed bedstraw, Galium aparine) were planted in pots containing the same blend of loam soil and sand and treated with post emergence applications of test chemicals formulated in the same manner. Plants ranged in height from 2 to 10 cm and were in the one- to two-leaf stage for the postemergence treatment. Treated plants and untreated controls were maintained in a greenhouse for approximately 10 d, after which time all treated plants were compared to untreated controls and visually evaluated for injury. Plant response ratings, summarized in Table C, are based on a 0 to 100 scale where 0 is no effect and 100 is complete control. A dash (-)response means no test result.

[5] = test system: foxtail, giant (giant foxtail, Setaria faberi); assay: Test C preemergence, visual plant response rating
Text: as §2, §3

[6] = test system: barnyardgrass (Echinochloa crus-galli); assay: Test C preemergence, visual plant response rating
Text: as §2, §3

[7] = test system: Italian ryegrass (Lolium mutiflorum); assay: Test C preemergence, visual plant response rating
Text: as §2, §3

[8] = test system: pigweed (Amaranthus retroflexus); assay: Test C preemergence, visual plant response rating
Text: as §2, §3

[9] = test system: ragweed (common ragweed, Ambrosia artemisiifolia); assay: Test C postemergence, visual plant response rating
Text: as §2, §3

kochia (Bassia scoparia) [10] = assay: Test C postemergence, visual plant response rating
Text: as §2, §3

[11] = test system: blackgrass (Alopecurus myosuroides); assay: Test C postemergence, visual plant response rating
Text: as §2, §3

[12] = test system: foxtail, giant (giant foxtail, Setaria faberi); assay: Test C postemergence, visual plant response rating
Text: as §2, §3

[13] = test system: barnyardgrass (Echinochloa crus-galli); assay: Test C postemergence, visual plant response rating
Text: as §2, §3

[14] = test system: wheat (Triticum aestivum); assay: Test C postemergence, visual plant response rating
Text: as §2, §3

[15] = test system: galium (catchweed bedstraw, Galium aparine); assay: Test C postemergence, visual plant response rating
Text: as §2, §3

corn (Zea mays) = assay: Test C postemergence, visual plant response rating
Text: as §2, §3

[16] = test system: Italian ryegrass (Lolium mutiflorum); assay: Test C postemergence, visual plant response rating
Text: as §2, §3

[17] = test system: pigweed (Amaranthus retroflexus); assay: Test C postemergence, visual plant response rating
Text: as §2, §3

[18] = Test C, 31 g ai/ha, 0 is no effect, 100 is complete control
[19] = Test C, postemergence, 125 g ai/ha
[20] = Test C, 125 g ai/ha, 0 is no effect, 100 is complete control

## CON=C(c1cc(Cl)cc(Cl)c1)c1c(O)c(C)nn(C)c1=O [Compound 189]
[1]
  Plant response rating, Barnyardgrass (Flood): 0
Rice (Oryza sativa)
  Plant response rating, Rice (Flood): 15
[2]
  Plant response rating, Sedge, Umbrella (Flood): 35
[3]
  Plant response rating, Ducksalad (Flood): 25
Kochia (Bassia scoparia) [4]; 125 g ai/ha
  Kochia plant response rating (0 to 100 scale): 40
Kochia (Bassia scoparia) [4]; [18]
  Kochia plant response rating (0 to 100 scale): 0
[5]; 125 g ai/ha
  Foxtail, Giant plant response rating (0 to 100 scale): 90
[5]; [18]
  Foxtail, Giant plant response rating (0 to 100 scale): 20
[6]; 125 g ai/ha
  Barnyardgrass plant response rating (0 to 100 scale): 90
[6]; [18]
  Barnyardgrass plant response rating (0 to 100 scale): 20
[7]; 125 g ai/ha
  Ryegrass, Italian plant response rating (0 to 100 scale): 100
[7]; [18]
  Ryegrass, Italian plant response rating (0 to 100 scale): 90
[8]; 125 g ai/ha
  Pigweed plant response rating (0 to 100 scale): 100
[8]; [18]
  Pigweed plant response rating (0 to 100 scale): 70
[9]; Postemergence, 31 g ai/ha
  Ragweed plant response rating (0 to 100 scale): 70
[9]; [19]
  Ragweed plant response rating (0 to 100 scale): 90
Kochia (Bassia scoparia) [10]; Postemergence, 31 g ai/ha
  Kochia plant response rating (0 to 100 scale): 70
Kochia (Bassia scoparia) [10]; [19]
  Kochia plant response rating (0 to 100 scale): 90
[11]; Postemergence, 31 g ai/ha
  Blackgrass plant response rating (0 to 100 scale): 10
[11]; [19]
  Blackgrass plant response rating (0 to 100 scale): 30
[12]; Postemergence, 31 g ai/ha
  Foxtail, Giant plant response rating (0 to 100 scale): 50
[12]; [19]
  Foxtail, Giant plant response rating (0 to 100 scale): 80
[13]; Postemergence, 31 g ai/ha
  Barnyardgrass plant response rating (0 to 100 scale): 30
[13]; [19]
  Barnyardgrass plant response rating (0 to 100 scale): 50
[14]; Postemergence, 31 g ai/ha
  Wheat plant response rating (0 to 100 scale): 10
[14]; [19]
  Wheat plant response rating (0 to 100 scale): 50
[15]; Postemergence, 31 g ai/ha
  Galium plant response rating (0 to 100 scale): 100
[15]; [19]
  Galium plant response rating (0 to 100 scale): 100
Corn (Zea mays); Postemergence, 31 g ai/ha
  Corn plant response rating (0 to 100 scale): 0
Corn (Zea mays); [19]
  Corn plant response rating (0 to 100 scale): 10
[16]; Postemergence, 31 g ai/ha
  Ryegrass, Italian plant response rating (0 to 100 scale): 90
[16]; [19]
  Ryegrass, Italian plant response rating (0 to 100 scale): 100
[17]; Postemergence, 31 g ai/ha
  Pigweed plant response rating (0 to 100 scale): 50
[17]; [19]
  Pigweed plant response rating (0 to 100 scale): 80

## CON=C(c1c(OC(C)=O)c(Cl)nn(C)c1=O)c1ccc(F)c2ccccc12 [Compound 190]
[1]
  Plant response rating, Barnyardgrass (Flood): 0
Rice (Oryza sativa)
  Plant response rating, Rice (Flood): 0
[2]
  Plant response rating, Sedge, Umbrella (Flood): 0
[3]
  Plant response rating, Ducksalad (Flood): 0
Kochia (Bassia scoparia) [4]; 125 g ai/ha
  Kochia plant response rating (0 to 100 scale): 0
Kochia (Bassia scoparia) [4]; [18]
  Kochia plant response rating (0 to 100 scale): 0
[5]; 125 g ai/ha
  Foxtail, Giant plant response rating (0 to 100 scale): 70
[5]; [18]
  Foxtail, Giant plant response rating (0 to 100 scale): 60
[6]; 125 g ai/ha
  Barnyardgrass plant response rating (0 to 100 scale): 50
[6]; [18]
  Barnyardgrass plant response rating (0 to 100 scale): 30
[7]; 125 g ai/ha
  Ryegrass, Italian plant response rating (0 to 100 scale): 60
[7]; [18]
  Ryegrass, Italian plant response rating (0 to 100 scale): 0
[8]; 125 g ai/ha
  Pigweed plant response rating (0 to 100 scale): 90
[8]; [18]
  Pigweed plant response rating (0 to 100 scale): 20
[9]; Postemergence, 31 g ai/ha
  Ragweed plant response rating (0 to 100 scale): 10
[9]; [19]
  Ragweed plant response rating (0 to 100 scale): 60
Kochia (Bassia scoparia) [10]; Postemergence, 31 g ai/ha
  Kochia plant response rating (0 to 100 scale): 10
Kochia (Bassia scoparia) [10]; [19]
  Kochia plant response rating (0 to 100 scale): 20
[11]; Postemergence, 31 g ai/ha
  Blackgrass plant response rating (0 to 100 scale): 0
[11]; [19]
  Blackgrass plant response rating (0 to 100 scale): 20
[12]; Postemergence, 31 g ai/ha
  Foxtail, Giant plant response rating (0 to 100 scale): 10
[12]; [19]
  Foxtail, Giant plant response rating (0 to 100 scale): 30
[13]; Postemergence, 31 g ai/ha
  Barnyardgrass plant response rating (0 to 100 scale): 30
[13]; [19]
  Barnyardgrass plant response rating (0 to 100 scale): 20
[14]; Postemergence, 31 g ai/ha
  Wheat plant response rating (0 to 100 scale): 0
[14]; [19]
  Wheat plant response rating (0 to 100 scale): 0
[15]; Postemergence, 31 g ai/ha
  Galium plant response rating (0 to 100 scale): 90
[15]; [19]
  Galium plant response rating (0 to 100 scale): 100
Corn (Zea mays); Postemergence, 31 g ai/ha
  Corn plant response rating (0 to 100 scale): 0
Corn (Zea mays); [19]
  Corn plant response rating (0 to 100 scale): 0
[16]; Postemergence, 31 g ai/ha
  Ryegrass, Italian plant response rating (0 to 100 scale): 10
[16]; [19]
  Ryegrass, Italian plant response rating (0 to 100 scale): 20
[17]; Postemergence, 31 g ai/ha
  Pigweed plant response rating (0 to 100 scale): 30
[17]; [19]
  Pigweed plant response rating (0 to 100 scale): 30

## CC(C)O/N=C(\c1c(O)c(Cl)nn(C)c1=O)c1cc(Br)cc2ccccc12 [Compound 233]
[1]
  Plant response rating, Barnyardgrass (Flood): 30
Rice (Oryza sativa)
  Plant response rating, Rice (Flood): 0
[2]
  Plant response rating, Sedge, Umbrella (Flood): 85
[3]
  Plant response rating, Ducksalad (Flood): 0
Kochia (Bassia scoparia) [4]; [18]
  Kochia plant response rating (0 to 100 scale): 0
Kochia (Bassia scoparia) [4]; [20]
  Kochia plant response rating (0 to 100 scale): 0
[5]; [18]
  Foxtail, Giant plant response rating (0 to 100 scale): 60
[5]; [20]
  Foxtail, Giant plant response rating (0 to 100 scale): 100
[6]; [18]
  Barnyardgrass plant response rating (0 to 100 scale): 90
[6]; [20]
  Barnyardgrass plant response rating (0 to 100 scale): 100
[7]; [18]
  Ryegrass, Italian plant response rating (0 to 100 scale): 0
[7]; [20]
  Ryegrass, Italian plant response rating (0 to 100 scale): 0
[8]; [18]
  Pigweed plant response rating (0 to 100 scale): 90
[8]; [20]
  Pigweed plant response rating (0 to 100 scale): 90
[9]; Postemergence, 31 g ai/ha
  Ragweed plant response rating (0 to 100 scale): 100
[9]; [19]
  Ragweed plant response rating (0 to 100 scale): 100
Kochia (Bassia scoparia) [10]; Postemergence, 31 g ai/ha
  Kochia plant response rating (0 to 100 scale): 0
Kochia (Bassia scoparia) [10]; [19]
  Kochia plant response rating (0 to 100 scale): 10
[11]; Postemergence, 31 g ai/ha
  Blackgrass plant response rating (0 to 100 scale): 0
[11]; [19]
  Blackgrass plant response rating (0 to 100 scale): 30
[12]; Postemergence, 31 g ai/ha
  Foxtail, Giant plant response rating (0 to 100 scale): 30
[12]; [19]
  Foxtail, Giant plant response rating (0 to 100 scale): 80
[13]; Postemergence, 31 g ai/ha
  Barnyardgrass plant response rating (0 to 100 scale): 40
[13]; [19]
  Barnyardgrass plant response rating (0 to 100 scale): 60
[14]; Postemergence, 31 g ai/ha
  Wheat plant response rating (0 to 100 scale): 0
[14]; [19]
  Wheat plant response rating (0 to 100 scale): 0
[15]; Postemergence, 31 g ai/ha
  Galium plant response rating (0 to 100 scale): 60
[15]; [19]
  Galium plant response rating (0 to 100 scale): 90
Corn (Zea mays); Postemergence, 31 g ai/ha
  Corn plant response rating (0 to 100 scale): 0
Corn (Zea mays); [19]
  Corn plant response rating (0 to 100 scale): 10
[16]; Postemergence, 31 g ai/ha
  Ryegrass, Italian plant response rating (0 to 100 scale): 0
[16]; [19]
  Ryegrass, Italian plant response rating (0 to 100 scale): 0
[17]; Postemergence, 31 g ai/ha
  Pigweed plant response rating (0 to 100 scale): 60
[17]; [19]
  Pigweed plant response rating (0 to 100 scale): 90
